Values of other authors in US12458589B2, “Implantable polymer depots for the controlled release of therapeutic agents” (Foundry Therapeutics, Inc., priority 2018, dated 2025).
Read-outs that look alike come from different tables or passages of the source.

Legend:
[1] = not given; remark: listed apart in the source

CCCCN1CCCCC1C(=O)Nc1c(C)cccc1C (centres unmarked) [bupivacaine]
generally regarded as safe plasma level: 1,000 ng/mL
generally regarded as safe plasma level [1]: 1,000 ng/mL
